Assay [1] relates to Schistosoma mansoni. The experiment in a line: High throughput screening of compounds against Schistosoma mansoni motility. The format is functional. Set-up: dose or concentration left out as unconfirmed.
The target of assay [2] is ClpP1P2 (Mycobacterium tuberculosis (strain ATCC 25618 / H37Rv), UniProt P9WPC3+P9WPC5). The experiment in a line: in vitro assay to detect presence of AMC directly proportional to the activity of ClpP1P2. GHDDI collaboration. The format is functional.
ClpP1P2, sequence (P9WPC5 whole entry): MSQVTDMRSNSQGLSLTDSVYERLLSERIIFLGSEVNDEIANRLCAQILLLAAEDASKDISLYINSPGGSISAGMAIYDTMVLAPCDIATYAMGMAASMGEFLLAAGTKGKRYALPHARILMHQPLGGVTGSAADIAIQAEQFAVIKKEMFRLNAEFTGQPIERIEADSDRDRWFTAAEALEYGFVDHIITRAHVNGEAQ
ClpP1P2, sequence (P9WPC3 whole entry): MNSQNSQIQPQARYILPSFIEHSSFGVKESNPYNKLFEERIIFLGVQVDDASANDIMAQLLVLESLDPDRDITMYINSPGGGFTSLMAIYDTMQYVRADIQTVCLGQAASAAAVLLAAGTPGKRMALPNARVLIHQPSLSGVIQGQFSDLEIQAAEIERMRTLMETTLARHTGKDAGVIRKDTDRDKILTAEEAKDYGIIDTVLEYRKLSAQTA
A short description of assay [3]: microbe, parasite or virus in culture. As to conditions: Mycobacterium tuberculosis, 96 h, read-out: pIC50 (converted).
The nature of assay [4]: microbe, parasite or virus in culture. As to conditions: Mycobacterium tuberculosis, 72 h, read-out: pIC50 (converted).
The subject of assay [5] is Plasmodium falciparum. As to the kind of experiment: Calibr Malaria Delayed Death Assay SOP. The conditions noted are these: for IC50: Plasmodium falciparum. The format is functional, organism-based.

The structures appear in SMILES notation.

`CCn1nc(C(C)C)cc1C(=O)NCCCOC`: the “Percent Effect” value in assay [1] was -51.54%.
For the compound `O=C(c1ccc(Br)s1)N1CCN(Cc2ccc(OC(F)(F)F)cc2)CC1`, the “Percent Effect” value in assay [1] amounted to 31.43%.
With `COc1ccccc1Oc1ncccc1CNC(=O)[C@@H](C)NC(C)=O`, the “Percent Effect” value in assay [1] is on record as -37.6%.
As to `CCCNC(=O)CSc1nnc2[nH]c(=O)cc(CC)n12`, the “Percent Effect” value in assay [1] is on record as -63.88%.
On the same count and under the same terms, under `COc1ccc(Br)c(C(=O)NCC2CCN(C(=O)c3ccoc3)CC2)c1` stands -63.91%.
For `CCNS(=O)(=O)c1ccc(C)c(C(=O)N(C)Cc2ccco2)c1`, in assay [1], the “Percent Effect” value is given as -32.86%.
Take `O=C(c1cccnc1)N1C[C@@H]2CC[C@H](C1)N(Cc1ncc[nH]1)C2`: the “Percent Effect” value in assay [1] is reported as -27.62%.
For `CC(C)C(=O)N1CCN(C(=O)c2cscn2)[C@H]2CS(=O)(=O)C[C@H]21`, the “Percent Effect” value in assay [1] is listed as -16.72%.
Same read-out and setting: next, `CC1CN(C)c2ccccc2CN1C(=O)c1ccncc1` (stereo not given): -35.26%.
The same measure, in the same setting: under `CCS(=O)(=O)N1CCC(c2nnc(Cn3cccn3)n2C2CC2)CC1` stands -7.484%.
Same read-out and setting: next, `O=C(CCc1cc2n(n1)CCCN(C(=O)c1cccnc1)C2)NC1CC1`: 5.877%; `O=C(NCC(Cc1cccc(F)c1)N1CCCC1=O)c1cnccn1` (stereo not given): 3.976%; `Cc1cnn(CC(C)NCc2nc(-c3cccnc3)no2)c1` (stereo not given): -19.9%.
With `CCCOc1cc(C)ccc1NC(=O)NCCC(=O)N(C)C`, in assay [1], the “Percent Effect” value is -17.12%.
In the case of `CCCS(=O)(=O)c1ncc(CN2CCC(CO)CC2)n1CC1CCCO1` (stereo not given), in assay [1], the “Percent Effect” value is -65.7%.
Same read-out and setting: next, `CC(C)C(=O)NCCNc1nccc(-c2cc(C(=O)O)ccn2)n1`: 19.02%; `Cc1occc1C(=O)N1CCC2(CCCN(CC3CCC3)C2=O)C1` (stereo not given): -40.66%.
For the compound `O=C(NCCCn1cccn1)C1(c2ccc(F)cc2)CC1`, the “Percent Effect” value in assay [1] was determined as 23.22%.
On to `O=C(NS(=O)(=O)c1cc(Cl)sc1Cl)c1cccc2c1OCCO2`, for which the “Percent Effect” value in assay [1] is -35.56%.
With `COc1ccc(F)cc1S(=O)(=O)NCC(c1cccn1C)N(C)C` (stereo not given), the “Percent Effect” value in assay [1] is -13.44%.
On to `CNC(=O)C(C)(C)NC(=O)c1cc(OCC2CCC2)cc(C(=O)OC)c1`, for which the “Percent Effect” value in assay [1] is listed as -68.4%.
In the case of `O=C(CSc1ccncc1)N1C[C@H]2CC[C@@H]1CN(Cc1cccnc1)C2`, the “Percent Effect” value in assay [1] is given as -27.79%.
Turning to `CCSc1cc(C(=O)NCCC(=O)Nc2ccccn2)ccn1`, the “Percent Effect” value in assay [1] is on record as -76.69%.
With `O=C(CCc1cscn1)NS(=O)(=O)c1ccc2c(c1)CCC2`, the “Percent Effect” value in assay [1] came to 28.79%.
For `CC(CNC(=O)c1ccc(F)cc1Cl)N1CCCC1` (stereo not given), the “Percent Effect” value in assay [1] is recorded as -36.02%.
Consider `COc1ccccc1OCC(=O)Nc1ncccc1OC(F)F`, for which the “Percent Effect” value in assay [1] was found to be 13.82%.
In the case of `Cc1ccn(-c2ccccc2NCc2ccccn2)n1`, the “Percent Effect” value in assay [1] is -12.81%.
Turning to `Cc1ccsc1CN(CCN(C)C)Cc1ccccn1`, the “Percent Effect” value in assay [1] was -19.12%.
For `Fc1ccccc1-c1noc2c1CN(CC1CC1)CC2`, in assay [1], the “Percent Effect” value is given as -95.25%.
For `Cc1nc(C)n(CC2CCCN2CCCc2ccccc2)n1` (stereo not given), the “Percent Effect” value in assay [1] was -9.599%.
Turning to `O=C(NCC1CC1)C1CSCN1S(=O)(=O)c1cccc(F)c1` (stereo not given), the “Percent Effect” value in assay [1] is listed as -77.75%.
On to `Cc1nc(CN2CCCC(N(C)CCc3cccs3)C2)no1` (stereo not given), for which the “Percent Effect” value in assay [1] was -59.95%.
For the compound `Cc1nc(C)n(CC2CCCN2CC(=O)NCCc2ccccc2)n1` (stereo not given), the “Percent Effect” value in assay [1] is given as -20.52%.
`COc1ccc(NC(=O)NC(C)(C)c2noc(C)n2)cc1`: in assay [1], the “Percent Effect” value is recorded as -52.77%.
With `CC(C)c1cnc(CNc2c(F)cccc2-n2cccn2)o1`, the “Percent Effect” value in assay [1] is recorded as 20.62%.
As for `O=c1nc(SCc2ccncc2)c2c(n1CCO)CCCC2`, the “Percent Effect” value in assay [1] is reported as -51.22%.
Same read-out and setting: next, `CNC(=O)c1ccc(OC2CCN(S(C)(=O)=O)CC2)c(Cl)c1`: 40.62%; `Cc1cc(CC(=O)N2CCN(CC3CC3)[C@@H]3CS(=O)(=O)C[C@@H]32)ccc1F`: 11.19%; `Cc1occc1C(=O)N1CCC2(CCC(=O)N(CC(N)=O)C2)CC1`: 13.97%.
Take `CC(C)OCc1ccc(CNc2cncc(-n3cccn3)n2)cc1`: the IC50 in assay [2] was more than 100 µM; in assay [3], 17 µM; in assay [4], more than 50.1 µM.
In the case of `OCC1(CC2CCCCO2)CCN(c2cnc3ccccc3n2)CC1` (stereo not given), the IC50 was more than 100 µM in assay [2], 10.7 µM in assay [3] and 13.4 µM in assay [4].
In the case of `COCCN1CCC(CNC(=O)C2(c3ccc(Br)cc3)CCCC2)C1` (stereo not given), in assay [5], the pIC50 was found to be 6.366 and the IC50 was 0.541 µM. In assay [2], the IC50 was more than 100 µM.
The like results for `CCn1cncc1CN1CCN(CC2(c3ccc(C)cc3)CC2)CC1.Cl` were, in that order, 6, 1.11 µM and more than 100 µM.
For `Cc1cc(C)c2cc(CNC3CCCCC3)c3nn(C)c(=O)n3c2c1` the same measures were 5.941, 1.04 µM and more than 100 µM.
Regarding `COc1cccc(C(C)Nc2ncnc3c2NC(=O)CN3)c1` (stereo not given), the figures for the IC50 in assay [2], in assay [3] and in assay [4] were more than 100 µM, more than 50.1 µM and more than 50.1 µM, respectively.
On to `CC(C)n1ccc(-c2cc(C(=O)NC3CC3)c3ccccn23)n1`, for which the IC50 is more than 100 µM in assay [2], 14 µM in assay [3] and 16.5 µM in assay [4].
As for `O[C@@H]1CN(c2cnc3ccccc3n2)CC[C@H]1c1ccc2c(c1)OCO2`, the IC50 was more than 100 µM in assay [2], 2.21 µM in assay [3] and 3.18 µM in assay [4].
With `COC(=O)CNC(=O)c1cn(-c2ccccn2)c(=O)c2ccccc12`, the IC50 was more than 100 µM in assay [2], more than 50.1 µM in assay [3] and more than 50.1 µM in assay [4].
With `CN(C)CCC1CN(C(=O)c2cccc3c2OCC3)CCO1` (stereo not given), the IC50 in assay [2] is more than 100 µM.
Turning to `Cc1cnn(CC2CN(Cc3nc4ccccc4o3)CCO2)c1` (stereo not given), the IC50 in assay [2] was more than 100 µM.
Regarding `NC(=O)CN1CCC(c2cc(C(F)(F)F)n3ccnc3n2)CC1`, the IC50 in assay [2] was more than 100 µM.
`Cc1ncc2c(n1)CN(CC(=O)Nc1ccc(Cl)cn1)CC2`: in assay [2], the IC50 was more than 100 µM.
`Cc1cnn(CC2CCCCN2C(=O)c2nccnc2N)c1` (stereo not given): the IC50 in assay [2] was more than 100 µM.
For the compound `Cc1oc(C)c(C(=O)N2CCN(Cc3cscn3)CC2)c1C`, the IC50 in assay [2] is more than 100 µM.
On to `c1cc2nc(C3CCNCC3)nn2cc1NC1CCC1`, for which the IC50 in assay [2] is more than 100 µM.
Turning to `O=C(c1cncc(NCC2COc3ccccc3C2)n1)N1CCCC1` (stereo not given), the IC50 in assay [2] is more than 100 µM.
Regarding `Nc1ncc(-c2ccc(Cl)cc2)c(C2CCCNC2)n1` (stereo not given), in assay [2], the IC50 is more than 100 µM.
With `OCCNc1nc(NCc2cccnc2)nc2nccnc12`, the IC50 in assay [2] is more than 100 µM.
For `CC1Cn2c(nc3c2c(=O)[nH]c(=O)n3C)O1` (stereo not given), the IC50 in assay [2] was more than 100 µM.
Turning to `CC(C)(C)c1ccc(OCC(=O)O)c(CN2C[C@H]3C[C@H](O)C[C@H]3C2)c1`, in assay [2], the IC50 is more than 100 µM.
Turning to `O=C(NCCCO)c1cc(-c2cc[nH]n2)n2ccccc12`, the IC50 in assay [2] is more than 100 µM.
`CCCNC(=O)c1cc(-c2ccn(C(C)C)n2)n2ccccc12`: the IC50 in assay [2] was more than 100 µM.
In the case of `Cc1nn2c(N3CCCC(C(N)=O)C3)cc(-c3ccccc3)nc2c1C` (stereo not given), the IC50 in assay [2] was more than 100 µM.
On to `Cc1nc(-c2ccsc2)ccc1C(=O)NCC(C)N1CCOCC1` (stereo not given), for which the IC50 in assay [2] was more than 100 µM.
Regarding `CN(C)c1nc2c(c(NCc3nnc4n3CCCCC4)n1)CCNC2`, in assay [2], the IC50 was more than 100 µM.
Regarding `COc1ccccc1CNc1ncnc2c1NC(=O)CN2`, in assay [2], the IC50 is more than 100 µM.
`CNCCN1C(=O)CC[C@H]2CN(c3cnc4ccccc4n3)CC[C@H]21`: the IC50 in assay [2] is more than 100 µM.
Regarding `O=C1CNc2ncnc(NCc3cccs3)c2N1`, the IC50 in assay [2] was more than 100 µM.
As for `Cc1cc2nc(C(C)C)cc(N(C)CC3CCN(C(C)C)C3)n2n1` (stereo not given), the IC50 in assay [2] is more than 100 µM; in assay [3] it was more than 50.1 µM; in assay [4], more than 50.1 µM.
Regarding `Cc1nc(-c2ccsc2)ccc1C(=O)NCCCN1CCOCC1`, in assay [2], the IC50 was more than 100 µM.
For `O=C(c1cc(F)ccc1F)C1CCN(C(=O)c2cnccn2)CC1`, in assay [2], the IC50 is more than 100 µM.
As for `Cn1ccc2c(-c3cc(N)nc(N4CCOCC4)n3)ccnc21`, the IC50 in assay [2] was more than 100 µM.
For `O=C(c1nc(=O)[nH]c2ccccc12)N1CCCC(CC2CC2)(C(=O)O)C1` (stereo not given), the IC50 in assay [2] is more than 100 µM.
Still for that read-out and setting: next, `COCCNCc1cc2c(C)cc(C)cc2n2c(=O)n(C)nc12`: more than 100 µM; `COc1ccc(-c2nc(CN3CCc4cncnc4C3)no2)cc1`: more than 100 µM.
Take `O=C(c1ccc2ccccc2n1)N1CCC2(CCN2c2ncccn2)C1` (stereo not given): the IC50 in assay [2] is more than 100 µM.
As to `N#Cc1c(N)nc2c(c1C1CCOC1)CCc1cc(O)ccc1-2` (stereo not given), the IC50 in assay [2] is more than 100 µM.
Still for that read-out and setting: next, `CCN(CC1CCOC1)C(=O)c1cnc2onc(C)c2c1` (stereo not given): more than 100 µM; `COc1ccc(C2Nc3ccccc3C3=NCCCN32)cc1OC` (stereo not given): more than 100 µM; `CN1CCc2c(sc3c2C(=O)NC(/C=C/c2ccccc2)N3)C1` (stereo not given): more than 100 µM.
On to `Cc1ncc2c(n1)CN(Cc1nc(Cc3ccccc3)no1)CC2`, for which the IC50 in assay [2] was more than 100 µM.
Regarding `CCN1CCCC1CNCc1cc2cc(OC)c(OC)cc2[nH]c1=O` (stereo not given), the IC50 in assay [2] is more than 100 µM.
On to `O=C1C(Nc2ccc3nccnc3n2)CCN1c1ccccc1` (stereo not given), for which, in assay [2], the IC50 was more than 100 µM.
Consider `Nc1nc(CN2CCOC(Cn3cccn3)C2)nc2ccccc12` (stereo not given), for which, in assay [2], the IC50 is more than 100 µM.
`O=C(NCCOC1CCCC1)c1ccc(-c2ccco2)[nH]c1=O`: the IC50 in assay [2] was more than 100 µM.
On the same count and under the same terms, under `CCc1nc(CN2CCCC(NCc3nc(C)c(C)o3)C2)no1` (stereo not given) stands more than 100 µM; under `COC(=O)[C@@H]1C[C@H](NC(=O)c2cc(=O)[nH]c3ccc(C)cc23)CN1C`, more than 100 µM; under `Nc1nccnc1C(=O)NCCCNc1ccc(C(F)(F)F)cn1`, more than 100 µM.
On to `O=C1NC2(CCN(CC(=O)N3CCOCC3)CC2)Nc2ccc(Br)cc21`, for which, in assay [2], the IC50 is more than 100 µM.
Still for that read-out and setting: under `COc1ccnc(N2CCN(C(=O)Cc3ccsc3)CC2)n1` stands more than 100 µM.
